One assay relates to BaF3 PIM1 cells. The assay can be described thus: In vitro cell proliferation, BaF3 transfected with PIM1.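 Note: murine IL-3-dependent pro-B BaF3 cells transfected with PIM1, compound exposure overnight at 37 °C under 5% CO2, viability read as luminescence.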 The format is cell-based, murine. The conditions noted are these: Mus musculus, BaF3, read-out: Prolif BaF3 PIM1 (IC50), BaF3 PIM1 cells, incubated overnight, CELL TITER GLO.
Another assay has as its target PIM1 (Homo sapiens (Human), UniProt P11309). Briefly: biochemical. The format is biochemical. To be noted: 20 pM PIM1, 1 μM FAM-peptide, 10 μM ATP, 90 minutes at room temperature; read-out: PIM1 LC3K (KI).
In another assay the test system is BaF3 parental cells. Briefly: In vitro cell proliferation, BaF3 parental line + IL3.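 Note: BaF3 parental cells are murine IL-3 dependent pro-B cells grown with 2 ng/mL mIL-3, 384-well format, viability read by luminescence.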 The conditions noted are these: Mus musculus, BaF3, BaF3 parental, mIL-3, incubated overnight, CELL TITER GLO; read-out: Prolif BaF3 IL3 (IC50). The format is cell-based, murine.
Assay [1] relates to MM1.S (multiple myeloma) cells. The assay can be described thus: In vitro cell proliferation, MM1.S multiple myeloma cells.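 Note: cells cultured in RPMI with 10% FBS and 2 mM L-Glutamine, seeded in 384-well plates, exposed to compound, cell viability measured by luminescence after CellTiter-Glo addition.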 The format is cell-based. To be noted: Homo sapiens, MM1.S, 72 h, MM1.S cells, 72 hours, CELL TITER GLO; read-out: Prolif MM1S ATP (EC50).

This is an account of results in patent US9328106B2, “Cyclic ether pyrazol-4-yl-heterocyclyl-carboxamide compounds and methods of use” (Genentech, Inc., priority 2012, dated 2016).

Each structure is given as a SMILES string.

PIM1, sequence (P11309 whole entry): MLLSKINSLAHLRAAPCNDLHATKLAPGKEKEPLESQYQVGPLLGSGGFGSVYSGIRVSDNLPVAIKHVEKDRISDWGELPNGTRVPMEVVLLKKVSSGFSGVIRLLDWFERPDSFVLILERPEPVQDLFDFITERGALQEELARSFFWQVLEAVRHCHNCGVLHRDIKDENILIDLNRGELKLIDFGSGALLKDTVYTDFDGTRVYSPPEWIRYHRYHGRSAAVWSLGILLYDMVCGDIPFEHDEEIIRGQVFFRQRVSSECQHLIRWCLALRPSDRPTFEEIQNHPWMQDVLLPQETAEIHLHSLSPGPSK
Description for BaF3 PIM1 cells: BaF3 parental line was obtained from the DSMZ repository. […] Media for BaF3 parental line contained RPMI, 10% FBS, 2 mM L-Glutamine, 2 ng/mL mIL-3. Media for BaF3 PIM1 & 2 lines contained RPMI, 10% FBS, 2 mM L-Glutamine, 250 μg/mL. Media for MM1.S (multiple myeloma cells) line contained RPMI, 10% FBS, 2 mM L-Glutamine.
BaF3, a murine interleukin-3 dependent pro-B cell line, parental cells, BaF3 PIM1 cells, BaF3 PIM2 cells, and MM1.S (multiple myeloma) cells were seeded at 2 k/well, 5 k/well, 5 k/well, and 10 k/well respectively, in a 384-well plate, at 45 μL/well. Test compound was added at 5 μL/well. BaF3 cells (parental and transfected) were incubated overnight, while MM1.S cells were incubated for 72 hours at 37° C., 5% CO2. CELL TITER GLO® Reagent (Promega) was added at 50 μL/well, the plates were incubated for 30 minutes, and their luminescence read on an HT Analyst. IC50/EC50 values for the test compound were calculated.

As for `Cn1ncc(NC(=O)c2csc(-c3c(F)cc(C4(F)COC4)cc3F)n2)c1[C@@H]1CC[C@@H](N)[C@H](F)CO1` [Example 340, N-(5-((2S,5R,6S)-5-amino-6-fluorooxepan-2-yl)-1-methyl-1H-pyrazol-4-yl)-2-(2,6-difluoro-4-(3-fluorooxetan-3-yl)phenyl)thiazole-4-carboxamide], the IC50 in the assay on BaF3 PIM1 cells came to 51.7 nM; with BaF3 parental cells, 20700 nM. For the same molecule, at PIM1, the Ki was found to be 0.01 nM. Besides, the EC50 in assay [1] is over 6200 nM.

Take `CO[C@@H]1CO[C@H](c2c(NC(=O)c3csc(-c4c(F)cccc4F)n3)cnn2C)CC[C@H]1N` [Example 347, N-(5-((2S,5R,6S)-5-amino-6-methoxyoxepan-2-yl)-1-methyl-1H-pyrazol-4-yl)-2-(2,6-difluorophenyl)thiazole-4-carboxamide]: the values for the IC50 with BaF3 PIM1 cells and in the assay on BaF3 parental cells were 157 nM and 5000 nM, respectively. Further, at PIM1, the Ki is 0.014 nM. For the same molecule, in assay [1], the EC50 was found to be 3300 nM.

Regarding `CO[C@@H]1CO[C@H](c2c(NC(=O)c3csc(-c4ncccc4C)n3)cnn2C)CC[C@H]1N` [Example 348, N-(5-((2S,5R,6S)-5-amino-6-methoxyoxepan-2-yl)-1-methyl-1H-pyrazol-4-yl)-2-(3-methylpyridin-2-yl)thiazole-4-carboxamide], the IC50 with BaF3 PIM1 cells worked out at 359 nM; with BaF3 parental cells, 10500 nM. Further, the Ki on PIM1 was 0.014 nM. The EC50 in assay [1] worked out at 1000 nM.

In the case of `Cn1ncc(NC(=O)c2csc(-c3c(F)cccc3F)n2)c1[C@H]1CC[C@H](N)[C@H](O)CO1` [Example 351, N-(5-((2R,5S,6S)-5-amino-6-hydroxyoxepan-2-yl)-1-methyl-1H-pyrazol-4-yl)-2-(2,6-difluorophenyl)thiazole-4-carboxamide], the IC50 in the assay with BaF3 PIM1 cells amounted to 621 nM; in the assay on BaF3 parental cells, 9900 nM. The Ki on PIM1 came out at 0.076 nM. Besides, in assay [1], the EC50 amounted to 520 nM.

As to `CN(C)C(=O)c1cc(F)c(-c2nc(C(=O)Nc3cnn(C)c3[C@@H]3CC[C@@H](N)[C@H](F)CO3)cs2)c(F)c1` [Example 354, N-(5-((2S,5R,6S)-5-amino-6-fluorooxepan-2-yl)-1-methyl-1H-pyrazol-4-yl)-2-(4-(dimethylcarbamoyl)-2,6-difluorophenyl)thiazole-4-carboxamide], the IC50 with BaF3 PIM1 cells was determined as 3400 nM; with BaF3 parental cells, 7300 nM. For the same molecule, on PIM1, the Ki was 0.083 nM. The EC50 in assay [1] amounted to 5100 nM.

In the case of `CO[C@@H]1CO[C@H](c2c(NC(=O)c3csc(-c4c(F)cc(C)cc4F)n3)cnn2C)CC[C@H]1N` [Example 355, N-(5-((2S,5R,6S)-5-amino-6-methoxyoxepan-2-yl)-1-methyl-1H-pyrazol-4-yl)-2-(2,6-difluoro-4-methylphenyl)thiazole-4-carboxamide], the figures for the IC50 with BaF3 PIM1 cells and with BaF3 parental cells were 53.5 nM and 3900 nM, respectively. Also, the Ki on PIM1 stood at 0.035 nM. The EC50 in assay [1] came to 1600 nM.

For `COc1ccc(F)c(-c2nc(C(=O)Nc3cnn(C)c3[C@@H]3CC[C@@H](N)[C@H](F)CO3)cs2)c1` [Example 356, N-(5-((2S,5R,6S)-5-amino-6-fluorooxepan-2-yl)-1-methyl-1H-pyrazol-4-yl)-2-(2-fluoro-5-methoxyphenyl)thiazole-4-carboxamide], the IC50 is 108 nM in the assay on BaF3 PIM1 cells and 6500 nM in the assay on BaF3 parental cells. Moreover, on PIM1, the Ki amounted to 0.053 nM. Also, in assay [1], the EC50 stood at 1400 nM.

In the case of `Cn1ncc(NC(=O)c2csc(-c3c(F)cc(C4CC4)cc3F)n2)c1[C@@H]1CC[C@@H](N)[C@H](F)CO1` [Example 358, N-(5-((2S,5R,6S)-5-amino-6-fluorooxepan-2-yl)-1-methyl-1H-pyrazol-4-yl)-2-(4-cyclopropyl-2,6-difluorophenyl)thiazole-4-carboxamide], the IC50 worked out at 68.2 nM in the assay with BaF3 PIM1 cells and 4100 nM in the assay on BaF3 parental cells. Also, on PIM1, the inhibition constant Ki was 0.009 nM. Also, the concentration for a half-maximal effect (EC50) in assay [1] was found to be 938 nM.

On to `Cn1ncc(NC(=O)c2ccc(F)c(-c3ccc(Cl)cc3F)n2)c1[C@@H]1CC[C@@H](N)[C@H](F)CO1` [Example 359, N-(5-((2S,5R,6S)-5-amino-6-fluorooxepan-2-yl)-1-methyl-1H-pyrazol-4-yl)-6-(4-chloro-2-fluorophenyl)-5-fluoropicolinamide], for which the IC50 amounted to 262 nM in the assay on BaF3 PIM1 cells and 11600 nM with BaF3 parental cells. The Ki at PIM1 worked out at 0.007 nM. The EC50 in assay [1] was 5800 nM.

In the case of `Cn1ncc(NC(=O)c2csc(-c3c(F)ccc(S(C)(=O)=O)c3F)n2)c1[C@@H]1CC[C@@H](N)[C@H](F)CO1` [Example 360, N-[5-[(2S,5R,6S)-5-amino-6-fluoro-oxepan-2-yl]-1-methyl-pyrazol-4-yl]-2-(2,6-difluoro-3-methylsulfonyl-phenyl)thiazole-4-carboxamide], the IC50 in the assay on BaF3 PIM1 cells is 15200 nM; in the assay with BaF3 parental cells, 16500 nM. The Ki at PIM1 was found to be 1.85 nM. The EC50 in assay [1] worked out at 9400 nM.

Regarding `Cc1cccc(-c2nc(C(=O)Nc3cnn(C)c3[C@@H]3CC[C@@H](N)[C@H](F)CO3)cs2)c1F` [Example 361, N-[5-[(2S,5R,6S)-5-amino-6-fluoro-oxepan-2-yl]-1-methyl-pyrazol-4-yl]-2-(2-fluoro-3-methyl-phenyl)thiazole-4-carboxamide], the IC50 in the assay on BaF3 PIM1 cells worked out at 250 nM; in the assay on BaF3 parental cells it was 2800 nM. Moreover, the Ki at PIM1 is 0.068 nM. Moreover, the EC50 in assay [1] stood at 452 nM.

In the case of `COc1cccc(-c2nc(C(=O)Nc3cnn(C)c3[C@@H]3CC[C@@H](N)[C@H](F)CO3)cs2)c1F` [Example 362, N-(5-((2S,5R,6S)-5-amino-6-fluorooxepan-2-yl)-1-methyl-1H-pyrazol-4-yl)-2-(2-fluoro-3-methoxyphenyl)thiazole-4-carboxamide], the IC50 was 50.7 nM in the assay with BaF3 PIM1 cells and 3100 nM in the assay on BaF3 parental cells. Further, the inhibition constant (Ki) at PIM1 was found to be 0.036 nM. For the same molecule, the EC50 in assay [1] stood at 336 nM.

For the molecule `Cn1ncc(NC(=O)c2csc(-c3c(F)ccc(C4CC4)c3F)n2)c1[C@@H]1CC[C@@H](N)[C@H](F)CO1` [Example 363, N-(5-((2S,5R,6S)-5-amino-6-fluorooxepan-2-yl)-1-methyl-1H-pyrazol-4-yl)-2-(3-cyclopropyl-2,6-difluorophenyl)thiazole-4-carboxamide], the half-maximal inhibitory concentration (IC50) in the assay with BaF3 PIM1 cells stood at 294 nM; in the assay on BaF3 parental cells it was 4500 nM. For the same molecule, on PIM1, the inhibitory constant (Ki) worked out at 0.034 nM. Also, the EC50 in assay [1] worked out at 937 nM.

On to `Cn1ncc(NC(=O)c2csc(-c3c(F)cc(F)cc3F)n2)c1[C@@H]1CC[C@@H](N)[C@H](F)CO1` [Example 364, N-(5-((2S,5R,6S)-5-amino-6-fluorooxepan-2-yl)-1-methyl-1H-pyrazol-4-yl)-2-(2,4,6-trifluorophenyl)thiazole-4-carboxamide], for which the IC50 in the assay with BaF3 PIM1 cells turned out to be 208 nM; in the assay on BaF3 parental cells, 20200 nM. The inhibition constant Ki on PIM1 amounted to 0.039 nM. Moreover, the EC50 in assay [1] came out at 1100 nM.

For the molecule `CC(C)C(=O)c1cc(F)c(-c2nc(C(=O)Nc3cnn(C)c3[C@@H]3CC[C@@H](N)[C@H](F)CO3)cs2)c(F)c1` [Example 367, N-(5-((2S,5R,6S)-5-amino-6-fluorooxepan-2-yl)-1-methyl-1H-pyrazol-4-yl)-2-(2,6-difluoro-4-isobutyrylphenyl)thiazole-4-carboxamide], the IC50 was found to be 245 nM with BaF3 PIM1 cells and 24000 nM in the assay with BaF3 parental cells. On PIM1, the Ki is 0.061 nM. For the same molecule, in assay [1], the 50% effective concentration (EC50) was 5400 nM.

As for `COc1ccc(F)c(-c2nc(C(=O)Nc3cnn(C)c3[C@@H]3CC[C@@H](N)[C@H](OC)CO3)cs2)c1F` [Example 368, N-(5-((2S,5R,6S)-5-amino-6-methoxyoxepan-2-yl)-1-methyl-1H-pyrazol-4-yl)-2-(2,6-difluoro-3-methoxyphenyl)thiazole-4-carboxamide], the IC50 with BaF3 PIM1 cells was determined as 100 nM; with BaF3 parental cells, 1900 nM. The inhibition constant (Ki) at PIM1 stood at 0.03 nM. Further, the half-maximal effective concentration (EC50) in assay [1] came out at 2400 nM.

In the case of `Cc1sc(-c2c(F)cccc2F)nc1C(=O)Nc1cnn(C)c1[C@@H]1CC[C@@H](N)[C@H](F)CO1` [Example 370, N-[5-[(2S,5R,6S)-5-amino-6-fluoro-oxepan-2-yl]-1-methyl-pyrazol-4-yl]-2-(2,6-difluorophenyl)-5-methyl-thiazole-4-carboxamide], the figures for the IC50 with BaF3 PIM1 cells and in the assay on BaF3 parental cells were 675 nM and 6400 nM, respectively. Further, the inhibition constant (Ki) on PIM1 was 0.382 nM. The concentration giving a half-maximal response (EC50) in assay [1] came out at 1800 nM.

For `Cc1[nH]nc(-c2nc(C(=O)Nc3cnn(C)c3[C@@H]3CC[C@@H](N)[C@H](F)CO3)cs2)c1C` [Example 372, N-(5-((2S,5R,6S)-5-amino-6-fluorooxepan-2-yl)-1-methyl-1H-pyrazol-4-yl)-2-(4,5-dimethyl-1H-pyrazol-3-yl)thiazole-4-carboxamide], the half-inhibitory concentration (IC50) in the assay with BaF3 PIM1 cells was 602 nM; in the assay on BaF3 parental cells, 20500 nM. The Ki at PIM1 was determined as 0.064 nM. In addition, the EC50 in assay [1] came to 1600 nM.

As to `Cn1ncc(NC(=O)c2csc(-c3n[nH]c4c3CCC(C)(C)C4)n2)c1[C@@H]1CC[C@@H](N)[C@H](F)CO1` [Example 373, N-(5-((2S,5R,6S)-5-amino-6-fluorooxepan-2-yl)-1-methyl-1H-pyrazol-4-yl)-2-(6,6-dimethyl-4,5,6,7-tetrahydro-1H-indazol-3-yl)thiazole-4-carboxamide], the IC50 with BaF3 PIM1 cells is 101 nM; with BaF3 parental cells it was 8600 nM. The inhibitory constant (Ki) on PIM1 is 0.009 nM. In assay [1], the half-maximal effective concentration (EC50) amounted to 3400 nM.

With `Cn1ncc(NC(=O)c2csc(-c3c(F)ccc(C(F)F)c3F)n2)c1[C@@H]1CC[C@@H](N)[C@H](F)CO1` [Example 377, N-[5-[(2S,5R,6S)-5-amino-6-fluoro-oxepan-2-yl]-1-methyl-pyrazol-4-yl]-2-[3-(difluoromethyl)-2,6-difluoro-phenyl]thiazole-4-carboxamide], the 50% inhibitory concentration (IC50) in the assay on BaF3 PIM1 cells turned out to be 68.6 nM; in the assay with BaF3 parental cells, 9900 nM. For the same molecule, the Ki on PIM1 came to 0.031 nM. The EC50 in assay [1] is 4200 nM.
